Here are results for six molecules from publication PMC9161444, “In-Membrane Nanostructuring of Cationic Amphiphiles Affects Their Antimicrobial Efficacy and Cytotoxicity: A Comparison Study between a De Novo Antimicrobial Lipopeptide and Traditional Biocides” (Langmuir, 2022).

By EC50 is commonly meant the concentration needed to bring the measured effect to its halfway point. Low values mean greater potency, high ones weaker potency.

Values after ≈ are worked out from the molar mass of the structure shown. Residues, ends and D or L forms follow the SMILES beside them. No end group written: not given here. *: point of attachment. Myristoyl = CCCCCCCCCCCCCC(=O)*

Data set [1] can be described thus: Analytical RP-HPLC retention time as measure of hydrophobicity. In kind it is physicochemical. Conditions: gradient of eluents. As to the method: Lipopeptide C14KKGGII was synthesized in the form of acyl chain hydrogenated h-C14KKGGII and acyl chain deuterated d-C14KKGGII. The lipopeptide samples were prepared using a Liberty Blue automated microwave peptide synthesizer, where the standard Fmoc solid-phase strategy was followed. Dimethylformamide (DMF) was used as the solvent during the whole process. Rink-amide resin was employed as a loading anchor to synthesize C-terminal amidated lipopeptides and was swelled for 5 min in DMF before synthesis. After the removal of Fmoc groups on resins, amino acids (Fmoc-Gly-OH, Fmoc-Ile-OH, and Fmoc-Lys-OH in this study) were coupled to the solid phase in succession from the C-terminal to the N-terminal, assisted by the addition of ethyl 2-cyano-2-(hydroxyimino)acetate (OXYMA) and N,N′-diisopropylcarbodiimide (DIC) at 90 °C for 4 min. Fmoc protecting groups on amino acids were removed before further linking using 20% piperidine in DMF. Hydrogenated or deuterated myristic acid was added onto the chain in the last step using the same method. A cleavage mixture of trifluoroacetic acid (TFA), water, and tri-isopropylsilane (TIS) (94/4/2, v/v/v) was employed for the reaction with lipopeptide-loaded resins for 3 h at ambient temperature, removing the side chain protecting groups on the amino acids and releasing lipopeptides from the resin beads. […]

For data set [2] the following is noted: previous findings by Lu et al.; cited from earlier work. The source says: From the best fitted surface tension parameters (listed in Table S2), the area per molecule (APM) could be calculated from eq 4 for each amphiphile at its respective CAC. […] This is in line with the previous findings by Lu et al., which stated that APMs of C10TAB, C12TAB, C14TAB, C16TAB, and C18TAB adsorbed on the surface of water were 55 ± 3, 50 ± 2, 48 ± 3, 43 ± 3, and 43 ± 3 Å^2, respectively.[29]−[33] Each lipopeptide molecule occupied around 79 ± 10 Å^2 at ...

The next data set concerns E. coli (ATCC 25922). In kind it is cell-based, Escherichia coli. As to conditions: ATCC 25922, 24 h. As to the method: (§1) E. coli (ATCC 25922), S. aureus (ATCC 6538), and C. albicans SC5314 (ATCC MYA-2876) were purchased from the American Type Culture Collection (ATCC). The two bacterial strains, E. coli and S. aureus, were cultured in Mueller Hinton broth at 37 °C; while the yeast strain, C. albicans, was grown in RPMI 1640 medium at 30 °C. The microdilution method was employed to determine MICs of the amphiphiles against the microorganism strains listed above.[21] Solutions of lipopeptides and biocides were half-diluted serially in 96-well plates using PBS buffer containing 137 mM NaCl, 2.7 mM KCl, 8.1 mM Na2HPO4, and 1.9 mM KH2PO4 for E. coli and S. aureus and using RPMI 1640 for C. albicans. Overnight incubations of the strains, in each respective growth medium, were then inoculated into each well, giving final concentrations of 10^6 CFU/mL for E. coli and S. aureus and 10^5 CFU/mL for C. albicans. Culture media without microorganisms and amphiphiles were employed as positive controls, while fresh microorganism cultures without amphiphiles were used as negative controls. Each plate has both positive controls and negative controls. The plates were then incubated at an appropriate temperature (stated above) for 24 h for the bacterial strains and 48 h for the yeast strain. MICs of each sample were first determined by eye. A more quantitative analysis was carried out by measuring optical densities at 600 nm (OD600) of each well using a Sunrise absorbance microplate reader (Tecan Group Ltd.). Inhibitory ratios (IRs) of each sample at a given concentration against a specific strain, denoted as IRi, were calculated by IRi = (OD600,negative control – OD600,i)/(OD600,negative control – OD600,positive control) × 100%. All experiments were repeated at least three times with each group containing three replicates. To better analyze concentration–IR relationships, sigmoidal function fittings were employed to generate the best fitted dose response curve for each situation.

Another data set relates to hRBCs. In kind it is cell-based, human. As to the method:
hRBCs were purchased from Rockland Immunochemical Inc. Hemolytic assays were performed in 96-well plates in an environment of PBS, as previously described.[13],[23] Amphiphiles were half diluted serially at first, resulting in 100 μL of solution in each well, and mixed subsequently with 100 μL of 4% hRBC suspension. Wells filled by PBS mixed with hRBC were employed as positive controls, while hRBCs with added 0.1% Triton X-100 were negative controls. After incubating at 37 °C for 1 h, the plates were centrifuged at 1000 times gravity for 5 min. The supernatants in each well, which contained the released hemoglobin, were transferred to another plate, and their optical density at 450 nm (OD450) was measured using an absorbance microplate reader. The percentage of hemolysis H for each sample at a certain concentration c was obtained by Hc = (OD450,c – OD450,positive control)/(OD450,negative control – OD450,positive control) × 100%. Figures for percentage leakage against concentration for each sample were plotted to determine the approximate range of 50% hemolysis, and the relevant concentration was the half maximal effective concentration (EC50) of the sample. Each experiment was repeated at least three times with each containing three replicates. The dose–response curves were again obtained by applying sigmoidal functional fits to obtain the EC50 values.

For data set [3], the system named is C. albicans SC5314 (ATCC MYA-2876). In kind it is cell-based, Candida albicans. Conditions: SC5314, 48 h. The procedure:
as §1

In another data set the test system is S. aureus (ATCC 6538). In kind it is cell-based, Staphylococcus aureus. As to conditions: ATCC 6538, 24 h. As to the method: as §1
The subject of data set [4] is Human dermal fibroblasts cells (adult, HDFa cells). In kind it is cell-based. As to conditions: 24 h. The procedure:
(§2) Human dermal fibroblasts cells (adult, HDFa cells) and NIH 3T3 fibroblasts cells (3T3 cells, ATCC-1658) were cultured at 37 °C in Dulbecco’s modified Eagle medium (ATCC30-2002, added with 10% heat-inactivated fetal bovine serum) with a continuous supply of CO2 at a 5% level. MTT assays were carried out to examine in vitro cytotoxicity of the amphiphiles.[22] Cells were first inoculated in flat-bottom 96-well plates, rendering 8 × 10^3 cells in 100 μL of medium for each well, and were incubated for 24 h. The cells were mixed with 100 μL of a solution of an amphiphile with 2 times the selected concentrations. Cells were then exposed to the solutions of each amphiphile for 24 h, after which 10 μL of 5 mg/mL MTT solution was added into each well, and the reaction was allowed for 2 h. 200 μL of dimethyl sulfoxide was then added to each well to dissolve the transformed MTT formazan. Light absorbance of the samples was measured using a Thermo Scientific Varioskan LUX at 570 nm. Cell samples 100% viable and 100% dead were employed as the positive control and negative control, respectively. Dose response curves were obtained by applying sigmoidal function fittings to obtain 50% effective concentrations (EC50).

Data set [5] relates to NIH 3T3 fibroblasts cells (3T3 cells, ATCC-1658). Format: cell-based. Conditions: 24 h. As to the method:
as §2

Regarding “CD3(CD2)12CO-KKGGII-NH2 [dC14KKGGII, acyl chain deuterated C14KKGGII]”, in data set [1], the “RP-HPLC retention time (comparison of hydrophobicity)” value is 25.6 min.
Turning to `CCCCCCCCCCCCCCCC[N+](C)(C)C.[Br-]` [C16TAB], the “APM adsorbed on the surface of water” value in data set [2] is listed as 43 ± 3 Å^2.
For the molecule `CCCCCCCCCCCCCC(=O)N[C@@H](CCCCN)C(=O)N[C@@H](CCCCN)C(=O)NCC(=O)NCC(=O)N[C@H](C(=O)N[C@H](C(N)=O)[C@@H](C)CC)[C@@H](C)CC` [C14KKGGII, CH3(CH2)12CO-Lys-Lys-Gly-Gly-Ile-Ile-NH2] (Myristoyl-KKGGII-NH2), the “MIC, E. coli” value with E. coli (ATCC 25922) stood at 16 ± 6 µM (≈ 13.2 µg/mL). Further, the “concentration at which hemolysis starts” value with hRBCs is 16 µM. For the same molecule, the half-maximal effective concentration (EC50) amounted to 180 ± 30 µM in the data set with hRBCs (1 h), 110 ± 30 µM in data set [4] and 66 ± 6 µM in data set [5]. Moreover, the “MIC, C. albicans” value in data set [3] stood at 12 ± 2 µM (≈ 9.89 µg/mL). Besides, the “MIC, S. aureus” value with S. aureus (ATCC 6538) was 9 ± 3 µM (≈ 7.42 µg/mL).
With `CCCCCCCCCCCCCCCCCC[N+](C)(C)C.[Br-]` [C18TAB], the “APM adsorbed on the surface of water” value in data set [2] is listed as 43 ± 3 Å^2.
Turning to KKGGII-NH2 [KKGGII, KKGGII-NH2], in data set [1], the “RP-HPLC retention time (comparison of hydrophobicity)” value is recorded as 15.4 min.
For the molecule `CCCCCCCCCC[N+](C)(C)C.[Br-]` [C10TAB], in data set [2], the “APM adsorbed on the surface of water” value is given as 55 ± 3 Å^2.
